The source of these data is PubChem BioAssay (NCI).

Test systems include SNB-75 CNS; OVCAR-3 ovarian; KM12 colon; UO-31 renal; UACC-62 melanoma; MALME-3M melanoma; NCI-H522 lung; UACC-257 melanoma; T-47D breast; LOX IMVI melanoma.
Common to all, as to experiment: NCI tumour cell line growth inhibition, 48 h

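A five-concentration, 48-hour dose response in 96-well plates underlies each endpoint, interpolated linearly between surrounding concentrations. At the GI50, growth is halved. The concentration for full growth arrest is given as TGI.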

Consider `Cc1nc(-n2nc(-c3ccccc3)cc2-c2ccccc2)sc1C(=O)/C=C/c1ccc([N+](=O)[O-])cc1`, for which the TGI was > 67 µM in the test with SNB-75 CNS; 45.3 µM in the test with OVCAR-3 ovarian; 38.1 µM in the test on KM12 colon; > 54 µM with UO-31 renal; > 53.9 µM with UACC-62 melanoma; > 100 µM in the test on MALME-3M melanoma. In addition, the TGI in the test on NCI-H522 lung is 66.1 µM; in the test on UACC-257 melanoma, > 71.7 µM; with T-47D breast, > 100 µM; in the test on LOX IMVI melanoma, 52.5 µM.
For the molecule `C#Cc1cccc(NC(=O)c2cccc(NC(=O)CCl)c2)c1`, the GI50 in the test with SNB-75 CNS was 12.3 µM; in the test with OVCAR-3 ovarian, 14.2 µM; with KM12 colon it was 17.4 µM; with UO-31 renal, 12 µM; in the test with UACC-62 melanoma, 26.9 µM; in the test on MALME-3M melanoma, 15.7 µM. Besides, the GI50 with NCI-H522 lung was 12.7 µM; with UACC-257 melanoma, 54.7 µM; with T-47D breast, 30.2 µM; in the test on LOX IMVI melanoma, 8.87 µM. The TGI with SNB-75 CNS is 75.5 µM; with OVCAR-3 ovarian, 29.4 µM; in the test on KM12 colon it was 60.6 µM; in the test on UO-31 renal, 22.9 µM; with UACC-62 melanoma, > 82.5 µM; in the test with MALME-3M melanoma it was 41.5 µM. In addition, the TGI with NCI-H522 lung is 33.4 µM; with UACC-257 melanoma it was > 82.5 µM; in the test with T-47D breast it was > 82.5 µM; in the test on LOX IMVI melanoma, 21.7 µM.
Take `Cc1cc(=O)oc2cc3oc(N(C)c4ccccc4)nc(=O)c3cc12`: the TGI in the test on SNB-75 CNS, with OVCAR-3 ovarian, with KM12 colon, in the test on UO-31 renal, in the test on UACC-62 melanoma and in the test with MALME-3M melanoma was > 100 µM throughout. For the same molecule, the TGI with NCI-H522 lung, in the test with UACC-257 melanoma, in the test with T-47D breast and in the test with LOX IMVI melanoma was > 100 µM in each case.
Turning to `O=c1oc2ccc(Cl)cc2c(=O)n1-c1ccc(F)cc1F`, the GI50 is 1.32 µM with SNB-75 CNS; 2.24 µM with OVCAR-3 ovarian; 2.72 µM in the test on KM12 colon; 1.22 µM with UO-31 renal; 0.608 µM in the test with UACC-62 melanoma; 1.11 µM in the test on MALME-3M melanoma. Besides, the GI50 in the test on NCI-H522 lung was 1.4 µM; with UACC-257 melanoma, 0.45 µM; in the test on T-47D breast, 1.08 µM; in the test on LOX IMVI melanoma, 2.4 µM. In addition, the TGI was 4.2 µM in the test with SNB-75 CNS; 18.2 µM in the test on OVCAR-3 ovarian; 10.2 µM with KM12 colon; 7.97 µM in the test with UO-31 renal; 3.84 µM with UACC-62 melanoma; 5.38 µM in the test on MALME-3M melanoma. Besides, the TGI in the test with NCI-H522 lung was 10.3 µM; with UACC-257 melanoma, 4.08 µM; in the test on T-47D breast it was 5.27 µM; with LOX IMVI melanoma it was 12.1 µM.
Consider `O=C(Nc1n[nH]c2nc(-c3ccc(O)cc3)c(Br)cc12)C1CC1`, for which the GI50 is 6.21 µM in the test with SNB-75 CNS; 1.39 µM in the test with OVCAR-3 ovarian; 1.54 µM in the test on KM12 colon; 3.93 µM with UO-31 renal; 4.26 µM with UACC-62 melanoma; 4.62 µM with MALME-3M melanoma. Besides, the GI50 is 4.33 µM in the test on NCI-H522 lung, 6.36 µM in the test with UACC-257 melanoma, 3.81 µM in the test with T-47D breast and 1.75 µM in the test with LOX IMVI melanoma. Further, the TGI in the test on SNB-75 CNS amounted to 12.5 µM; in the test on OVCAR-3 ovarian it was 9.14 µM; with KM12 colon it was 7.76 µM; in the test with UO-31 renal, 15.3 µM; in the test on UACC-62 melanoma, 11.9 µM; in the test on MALME-3M melanoma, 12.5 µM. Besides, the TGI in the test on NCI-H522 lung came out at 12.1 µM; in the test with UACC-257 melanoma, 17 µM; in the test with T-47D breast it was 14.5 µM; in the test with LOX IMVI melanoma, 13.1 µM.
For the molecule `CC(C)=Cc1cccc2[nH]c(O)c(N=Nc3ccc(S(N)(=O)=O)cc3)c12`, the GI50 is > 8.54 µM in the test with SNB-75 CNS; 11.5 µM with OVCAR-3 ovarian; 0.1 µM in the test on KM12 colon; > 25 µM in the test with UO-31 renal; > 25 µM in the test on UACC-62 melanoma; > 25 µM in the test on MALME-3M melanoma. Further, the GI50 in the test with NCI-H522 lung is > 25 µM; in the test with UACC-257 melanoma, > 25 µM; in the test with T-47D breast, > 25 µM; with LOX IMVI melanoma, 2.67 µM. Besides, the TGI is > 25 µM in the test on SNB-75 CNS; > 25 µM in the test on OVCAR-3 ovarian; > 18.6 µM with KM12 colon; > 25 µM with UO-31 renal; > 25 µM with UACC-62 melanoma; > 25 µM with MALME-3M melanoma. The TGI in the test on NCI-H522 lung, in the test on UACC-257 melanoma, with T-47D breast and in the test on LOX IMVI melanoma was > 25 µM throughout.
For the molecule `O=S(=O)(O)n1ccnc1` (tested in a mixture with another compound), the TGI in the test with SNB-75 CNS, with OVCAR-3 ovarian, in the test on KM12 colon, in the test with UO-31 renal, with UACC-62 melanoma and in the test on MALME-3M melanoma was > 100 µM each time. For the same molecule, the TGI in the test on NCI-H522 lung, with UACC-257 melanoma, in the test with T-47D breast and in the test on LOX IMVI melanoma was > 100 µM in each case.
As to `COc1ccccc1NC(=O)CC(=O)n1nc(C)c(N=Nc2ccccc2Cl)c1C`, the TGI in the test on SNB-75 CNS is 57.2 µM; with OVCAR-3 ovarian it was > 100 µM; in the test with KM12 colon, > 100 µM; with UO-31 renal it was > 100 µM; in the test with UACC-62 melanoma, > 100 µM; with MALME-3M melanoma, > 100 µM. For the same molecule, the TGI in the test with NCI-H522 lung, in the test on UACC-257 melanoma, in the test on T-47D breast and in the test on LOX IMVI melanoma was > 100 µM in each case.
As for `CCCCc1n(Cc2ccc3ccccc3n2)cc[n+]1Cc1ccc2ccccc2n1`, the GI50 was 0.889 µM in the test with SNB-75 CNS; 0.698 µM with OVCAR-3 ovarian; 0.742 µM in the test on KM12 colon; 11.7 µM with UO-31 renal; 0.749 µM with UACC-62 melanoma; 0.946 µM in the test on MALME-3M melanoma. Also, the GI50 with NCI-H522 lung was 0.445 µM; in the test with UACC-257 melanoma, 0.543 µM; in the test with T-47D breast, 0.375 µM; with LOX IMVI melanoma, 1.52 µM. Also, the TGI was found to be 6.01 µM in the test on SNB-75 CNS; 10.7 µM in the test with OVCAR-3 ovarian; 6.19 µM with KM12 colon; 24.5 µM in the test on UO-31 renal; 3.56 µM in the test on UACC-62 melanoma; 7.03 µM in the test on MALME-3M melanoma. The TGI in the test with NCI-H522 lung came to 4.99 µM; in the test with UACC-257 melanoma it was 4.32 µM; in the test with T-47D breast, 6.01 µM; in the test on LOX IMVI melanoma it was 4.67 µM.
